Assay results: patent publication US11084824B2, “Pyrazolopyrimidine derivatives, preparation method thereof, and pharmaceutical composition for use in preventing or treating cancer, autoimmune disease and brain disease containing the same as an active ingredient” (Korea Research Institute of Chemical Technology, priority 2017, dated 2021)

What was measured:
[1] = molecular target: Bruton's tyrosine kinase (BTK) (Homo sapiens (Human), UniProt Q06187); experiment: BTK enzyme inhibition assay (Cisbio HTRF kit); type: biochemical; settings: 30 minutes reaction, fluorescence 665 nm/620 nm
Procedure: BTK enzyme evaluation with each compound of examples of the invention was performed by using BTK enzyme inhibition diagnosis kit (Cisbio, Codolet, France). […] Then, EDTA (ethylenediaminetetraacetic acid) was added thereto in order to terminate the reaction. At this time, the EDTA solution contained curopium-containing antibody (antiphosphoresidue antibody) and straptavidin-XL665 (SA-XL665, Cisbio). After incubation for 1 hour, fluorescence was measured. The emission values of 665 nm and 620 nm excited at 337 nm were measured with Envision reader. IC50 values were determined using GraphPad prism (version 5). Herein, the curve indicates a nonlinear regression model, which was determined by logarithmic functions and reaction values.

TMD8 cells = experiment: TMD8 cell growth inhibition (WST-1, 72 hours); type: cell-based; settings: Homo sapiens, TMD8 ABC type DLBCL cell line, WST-1, absorbance 450 nm
Procedure: TDM-8 cells, the ABC (activated B-cell) type DLBCL (diffuse large B cell lymphoma) cell line sensitive to BTK signaling, were seeded in a 96-well plate at 30% confluency. Then, the compounds of the invention were treated thereto at different concentrations. 72 hours later, WST-1 reagent was added thereto. One hour later, absorbance was measured at 450 nm by using a spectramax spectrophotometer.

Sequence of Bruton's tyrosine kinase (BTK) (Q06187 whole entry): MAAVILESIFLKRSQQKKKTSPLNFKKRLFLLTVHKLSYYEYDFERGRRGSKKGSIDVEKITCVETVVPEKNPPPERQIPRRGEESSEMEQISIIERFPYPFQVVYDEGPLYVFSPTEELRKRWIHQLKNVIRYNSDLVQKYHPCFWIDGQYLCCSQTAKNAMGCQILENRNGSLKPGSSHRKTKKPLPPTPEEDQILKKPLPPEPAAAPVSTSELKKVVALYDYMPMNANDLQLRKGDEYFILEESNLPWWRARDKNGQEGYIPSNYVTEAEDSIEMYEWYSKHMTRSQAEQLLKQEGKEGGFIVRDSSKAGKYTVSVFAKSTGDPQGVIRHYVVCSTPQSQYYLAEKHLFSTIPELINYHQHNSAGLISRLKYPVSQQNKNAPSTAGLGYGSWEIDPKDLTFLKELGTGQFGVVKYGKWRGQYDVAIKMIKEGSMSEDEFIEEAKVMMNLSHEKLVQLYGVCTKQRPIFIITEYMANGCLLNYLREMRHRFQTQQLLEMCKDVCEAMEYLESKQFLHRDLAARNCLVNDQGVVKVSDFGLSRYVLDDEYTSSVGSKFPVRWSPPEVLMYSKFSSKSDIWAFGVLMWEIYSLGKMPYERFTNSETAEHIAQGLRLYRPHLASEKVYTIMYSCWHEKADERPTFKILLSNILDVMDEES

`Cc1cccc(C)c1Nc1nn(C)c2nc(Nc3ccc(C4CCNCC4)cc3)ncc12` [Comparative Example 1, N^3-(2,6-dimethylphenyl)-1-methyl-N^6-(4-(piperidine-4-yl)phenyl)-1H-pyrazolo[3,4-d]pyrimidine-3,6-diamine, reference compound] was tested, and the IC50 [1] was 10 nM.
Compound `CC(=O)N1CCC(c2ccc(Nc3ncc4c(Nc5c(C)cccc5C)nn(C)c4n3)cc2)CC1` [Comparative Example 2, 1-(4-(4-(3-(2,6-dimethylphenylamino)-1-methyl-1H-pyrazolo[3,4-d]pyrimidine-6-ylamino)phenyl)piperidine-1-yl)ethaneone, reference compound] has an IC50 [1] of 20 nM.
`Cn1nc(Nc2c(Cl)cccc2Cl)c2cnc(Nc3ccc4c(c3)CN(C(=O)C(F)(F)F)CC4)nc21` [Example 11, 1-(7-(3-(2,6-dichlorophenylamino)-1-methyl-1H-pyrazolo[3,4-d]pyrimidine-6-ylamino)-3,4-dihydroisoquinoline-2(1H)-yl)-2,2,2-trifluoroethaneone] showed an IC50 (TMD8 cells) of 243 nM and an IC50 [1] of 386 nM.
For `Cc1cccc(C)c1Nc1nn(C)c2nc(Nc3ccc4c(c3)CN(C)CC4)ncc12` [Example 17, N^3-(2,6-dimethylphenyl)-1-methyl-N^6-(2-methyl-1,2,3,4-tetrahydroisoquinoline-7-yl)-1H-pyrazolo[3,4-d]pyrimidine-3,6-diamine], the IC50 (TMD8 cells) was 36 nM and the IC50 [1] was 1.2 nM.
In the case of `Cc1cccc(C)c1Nc1nn(C)c2nc(Nc3ccc4c(c3)COCC4)ncc12` [Example 18, N^3(2,6-dimethylphenyl)-N^6 (isochroman-7-yl)-1-methyl-1H-pyrazolo[3,4-d]pyrimidine-3,6-diamine], the IC50 (TMD8 cells) is reported as 134 nM and the IC50 [1] is reported as 0.5 nM.
Work on `Cc1cccc(C)c1Nc1n[nH]c2nc(Nc3ccc4c(c3)CNCC4)ncc12` [Example 19, N3-(2,6-dimethylphenyl)-N6-(1,2,3,4-tetrahydroisoquinoline-7-yl)-1H-pyrazolo[3,4-d]pyrimidine-3,6-diamine] yielded an IC50 (TMD8 cells) of 49.4 nM.
Compound `Cc1cccc(C)c1Nc1nn(C)c2nc(Nc3ccc4c(c3)C(C)NCC4)ncc12` (centres unmarked) [Example 20, N^3-(2,6-dimethylphenyl)-1-methyl-N^6-(1-methyl-1,2,3,4-tetrahydroisoquinoline-7-yl)-1H-pyrazolo[3,4-d]pyrimidine-3,6-diamine] has an IC50 (TMD8 cells) of 8.28 nM and an IC50 [1] of 0.5 nM.
For `Cc1cccc(C)c1Nc1nn(C)c2nc(Nc3ccc4c(c3)CN(C(C)C)CC4)ncc12` [Example 21, N-(2,6-dimethylphenyl)-N^6 (2-isopropyl-1,2,3,4-tetrahydroisoquinoline-7-yl)-1-methyl-1H-pyrazolo[3,4-d]pyrimidine-3,6-diamine], the IC50 (TMD8 cells) was 139 nM and the IC50 [1] was 0.2 nM.
For `Cc1cccc(C)c1Nc1nn(C)c2nc(Nc3ccc4c(c3)CN(C(=O)CO)CC4)ncc12` [Example 22, 1-(7-(3-(2,6-dimethylphenylamino)-1-methyl-1H-pyrazolo[3,4-d]pyrimidine-6-ylamino)-3,4-dihydroisoquinoline-2(1H)-yl)-2-hydroxyethanone], the IC50 (TMD8 cells) was 46.4 nM and the IC50 [1] was 0.4 nM.
For `Cc1cccc(C)c1Nc1nn(C)c2nc(Nc3ccc4c(c3)CN(C(=O)C3CC3)CC4)ncc12` [Example 23, cyclopropyl(7-(3-(2,6-dimethylphenylamino)-1-methyl-1H-pyrazolo[3,4-d]pyrimidine-6-ylamino)-3,4-dihydroisoquinoline-2(1H)-yl)methanone], the IC50 (TMD8 cells) was 87.9 nM and the IC50 [1] was 0.3 nM.
`Cc1cccc(C)c1Nc1nn(C(C)C)c2nc(Nc3ccc4c(c3)CNCC4)ncc12` [Example 27, N^3 (2,6-dimethylphenyl)-1-isopropyl-N6-(1,2,3,4-tetrahydroisoquinoline-7-yl)-1H-pyrazolo[3,4-d]pyrimidine-3,6-diamine] gave an IC50 (TMD8 cells) of 35.4 nM.
In the case of `Cc1cc(C)c(Cl)c(Nc2nn(C)c3nc(Nc4ccc5c(c4)CNCC5)ncc23)c1` [Example 38, N^3-(2-chloro-3,5-dimethylphenyl)-1-methyl-N^6-(1,2,3,4-tetrahydroisoquinoline-7-yl)-1H-pyrazolo[3,4-d]pyrimidine-3,6-diamine], the IC50 (TMD8 cells) is reported as 832 nM.
`Cn1nc(Nc2c(F)cccc2F)c2cnc(Nc3ccc4c(c3)CNCC4)nc21` [Example 42, N^3-(2,6-difluorophenyl)-1-methyl-N^6-(1,2,3,4-tetrahydroisoquinoline-7-yl)-1H-pyrazolo[3,4-d]pyrimidine-3,6-diamine] was tested, and the IC50 (TMD8 cells) was 397 nM.
In the case of `Cc1ccc(C)c(Nc2nn(C)c3nc(Nc4ccc5c(c4)CNCC5)ncc23)c1` [Example 45, N^3-(2,5-dimethylphenyl)-1-methyl-N^6 (1,2,3,4-tetrahydroisoquinoline-7-yl)-1H-pyrazolo[3,4-d]pyrimidine-3,6-diamine], the IC50 (TMD8 cells) is reported as 720 nM.
For `Cc1ccc(C(=O)Nc2cccc(C(F)(F)F)c2)cc1Nc1nn(C)c2nc(Nc3ccc4c(c3)CNCC4)ncc12` [Example 52, 4-methyl-3-(1-methyl-6-(1,2,3,4-tetrahydroisoquinoline-7-ylamino)-1H-pyrazolo[3,4-d]pyrimidine-3-ylamino)-N-(3-(trifluoromethyl)phenyl)benzamide], the IC50 (TMD8 cells) was 83.2 nM.
For `Cc1ccc(NC(=O)Nc2cccc(C(F)(F)F)c2)cc1Nc1nn(C)c2nc(Nc3ccc4c(c3)CNCC4)ncc12` [Example 57, 1-(4-methyl-3-((1-methyl-6-((1,2,3,4-tetrahydroisoquinoline-7-yl)amino)-1H-pyrazolo[3,4-d]pyrimidine-3-yl)amino)phenyl)-3-(3-(trifluoromethyl)phenyl)urea], the IC50 (TMD8 cells) was 221 nM.
`Cc1cccc(C)c1Nc1nn(C)c2nc(Nc3ccc4c(c3)CN(C)C(C)(C)C4)ncc12` [Example 66, N3-(2,6-dimethylphenyl)-1-methyl-N 6-(2,3,3-trimethyl-1,2,3,4-tetrahydroisoquinoline-7-yl)-1H-pyrazolo[3,4-d]pyrimidine-3,6-diamine] showed an IC50 (TMD8 cells) of 28.5 nM.
`Cc1cccc(C)c1Nc1nn(C)c2nc(Nc3ccc4c(c3)C(C)N(C)C(C)(C)C4)ncc12` (centres unmarked) [Example 67, N3-(2,6-dimethylphenyl)-1-methyl-N 6-(1,2,3,3-tetramethyl-1,2,3,4-tetrahydroisoquinoline-7-yl)-1H-pyrazolo[3,4-d]pyrimidine-3,6-diamine] showed an IC50 (TMD8 cells) of 23.6 nM.
Work on `CC(=O)N1Cc2cc(Nc3ncc4c(Nc5c(C)cccc5C)nn(C)c4n3)ccc2C(C)(C)C1` [Example 68, 1-(7-((3-((2,6-dimethylphenyl)amino)-1-methyl-1H-pyrazolo[3,4-d]pyrimidine-6-yl)amino)-4,4-dimethyl-3,4-dihydroisoquinoline-2(1H)-yl)ethane-1-one] yielded an IC50 (TMD8 cells) of 121 nM.
Work on `CC(=O)N1CCc2ccc(Nc3ncc4c(Nc5c(C)cccc5C)nn(C)c4n3)cc2C1C(C)C` (centres unmarked) [Example 70, 1-(7-((3-((2,6-dimethylphenyl)amino)-1-methyl-1H-pyrazolo[3,4-d]pyrimidine-6-yl)amino)-1-isopropyl-3,4-dihydroisoquinoline-2(1H)-yl) ethane-1-one] yielded an IC50 (TMD8 cells) of 24.5 nM.
In the case of `CC(=O)N1Cc2cc(Nc3ncc4c(Nc5c(C)cccc5C)nn(C)c4n3)ccc2CC1(C)C` [Example 71, 1-(7-((3-((2,6-dimethylphenyl)amino)-1-methyl-1H-pyrazolo[3,4-d]pyrimidine-6-yl)amino)-3,3-dimethyl-3,4-dihydroisoquinoline-2(1H)-yl)ethane-1-one], the IC50 (TMD8 cells) is reported as 114 nM.
`CC(=O)N1Cc2ccc(Nc3ncc4c(Nc5c(C)cccc5C)nn(C)c4n3)cc2C1` [Example 72, 1-(5-((3-((2,6-dimethylphenyl)amino)-1-methyl-1H-pyrazolo[3,4-d]pyrimidine-6-yl)amino)isoindolin-2-yl)ethane-1-one] gave an IC50 (TMD8 cells) of 266 nM.
`Cc1cccc(C)c1Nc1nn(C)c2nc(Nc3ccc4c(c3)CN(C)C4)ncc12` [Example 74, N3-(2,6-dimethylphenyl)-1-methyl-N 6-(2-methylisoindolin-5-yl)-1H-pyrazolo[3,4-d]pyrimidine-3,6-diamine] was tested, and the IC50 (TMD8 cells) was 358 nM.
With `Cc1cccc(C)c1Nc1nn(C)c2nc(Nc3ccc4c(c3)CCCC4)ncc12` [Example 75, N3-(2,6-dimethylphenyl)-1-methyl-N 6-(5,6,7,8-tetrahydronaphthalen-2-yl)-1H-pyrazolo[3,4-d]pyrimidine-3,6-diamine] the IC50 (TMD8 cells) was 667 nM.
Compound `C=CC(=O)Nc1ccc(Nc2ncc3c(Nc4c(C)cccc4C)nn(C)c3n2)cc1` [Example 76, N-(4-((3-((2,6-dimethylphenyl)amino)-1-methyl-1H-pyrazolo[3,4-d]pyrimidine-6-yl)amino)phenyl)acrylamide] has an IC50 (TMD8 cells) of 75.2 nM.
For `Cc1cccc(C)c1Nc1nn(C)c2nc(Nc3ccc4c(c3)C(=O)NCC4)ncc12` [Example 77, 7-((3-((2,6-dimethylphenyl)amino)-1-methyl-1H-pyrazolo[3,4-d]pyrimidine-6-yl)amino)-3,4-dihydroisoquinoline-1(2H)-one], the IC50 (TMD8 cells) was 146 nM.
`COCCOc1cc(C)c(Nc2nn(C)c3nc(Nc4ccc5c(c4)C(C(C)C)NCC5)ncc23)c(C)c1` (centres unmarked) [Example 78, N6-(1-isopropyl-1,2,3,4-tetrahydroisoquinoline-7-yl)-N 3-(4-(2-methoxyethoxy)-2,6-dimethylphenyl)-1-methyl-1H-pyrazolo[3,4-d]pyrimidine-3,6-diamine] showed an IC50 (TMD8 cells) of 26.2 nM.
In the case of `COCCOc1cc(C)c(Nc2nn(C)c3nc(Nc4ccc5c(c4)C(C)(C)NCC5)ncc23)c(C)c1` [Example 79, N6-(1,1-dimethyl-1,2,3,4-tetrahydroisoquinoline-7-yl)-N 3-(4-(2-methoxyethoxy)-2,6-dimethylphenyl)-1-methyl-1H-pyrazolo[3,4-d]pyrimidine-3,6-diamine], the IC50 (TMD8 cells) is reported as 13 nM.
